Test system: Akt
Experiment: Akt Lum
Format: cell-based

SMILES | IC50 [nM]
Cc1cc(Cl)cc(OCCn2cccn2)c1-c1nc(N)nc2c1CN(C(=O)NC13CC(C1)C3)C2 [Example 3] | 52.5
Nc1nc2c(c(-c3c(Cl)cc(Cl)cc3OCCn3cc(F)cn3)n1)CN(C(=O)NC1CC1)C2 [Example 10, 2-amino-N-cyclopropyl-4-{2,4-dichloro-6-[2-(4-fluoro-1H-pyrazol-1-yl)ethoxy]phenyl}-5,7-dihydro-6H-pyrrolo[3,4-d]pyrimidine-6-carboxamide] | 111
Nc1nc2c(c(-c3c(Cl)cc(Cl)cc3OCCn3nccc3C(F)(F)F)n1)CN(C(=O)NC1CC1)C2 [Example 14, 2-amino-N-cyclopropyl-4-(2,4-dichloro-6-{2-[5-(trifluoromethyl)-1H-pyrazol-1-yl]ethoxy}phenyl)-5,7-dihydro-6H-pyrrolo[3,4-d]pyrimidine-6-carboxamide] | 6690
Nc1nc2c(c(-c3c(Cl)cc(Cl)cc3OCCn3ccc(C(F)(F)F)n3)n1)CN(C(=O)NC1CC1)C2 [Example 13, 2-amino-N-cyclopropyl-4-(2,4-dichloro-6-{2-[3-(trifluoromethyl)-1H-pyrazol-1-yl]ethoxy}phenyl)-5,7-dihydro-6H-pyrrolo[3,4-d]pyrimidine-6-carboxamide] | 660
Nc1nc2c(c(-c3c(Cl)cc(Cl)cc3OCCn3cc(Br)cn3)n1)CN(C(=O)NC1CC1)C2 [Example 12, 2-amino-4-{2-[2-(4-bromo-1H-pyrazol-1-yl)ethoxy]-4,6-dichlorophenyl}-N-cyclopropyl-5,7-dihydro-6H-pyrrolo[3,4-d]pyrimidine-6-carboxamide] | 175
Cc1cc(C(F)(F)F)n(CCOc2cc(Cl)cc(Cl)c2-c2nc(N)nc3c2CN(C(=O)NC2CC2)C3)n1 [Example 15, 2-amino-N-cyclopropyl-4-(2,4-dichloro-6-{2-[3-methyl-5-(trifluoromethyl)-1H-pyrazol-1-yl]ethoxy}phenyl)-5,7-dihydro-6H-pyrrolo[3,4-d]pyrimidine-6-carboxamide] | 18300
Nc1nc2c(c(-c3c(Cl)cc(Cl)cc3OCCn3cc(Cl)cn3)n1)CN(C(=O)NC1CC1)C2 [Example 2, 2-amino-N-cyclopropyl-4-{2,4-dichloro-6-[2-(4-chloro-1H-pyrazol-1-yl)ethoxy]phenyl}-5,7-dihydro-6H-pyrrolo[3,4-d]pyrimidine-6-carboxamide] | 104
Cc1cc(Cl)cc(OCCn2cc(F)cn2)c1-c1nc(N)nc2c1CN(C(=O)NC13CC(C1)C3)C2 [Example 7, 2-amino-N-bicyclo[1.1.1]pent-1-yl-4-{4-chloro-2-[2-(4-fluoro-1H-pyrazol-1-yl)ethoxy]-6-methylphenyl}-5,7-dihydro-6H-pyrrolo[3,4-d]pyrimidine-6-carboxamide] | 20.9
Cc1cc(C(F)(F)F)nn1CCOc1cc(Cl)cc(Cl)c1-c1nc(N)nc2c1CN(C(=O)NC1CC1)C2 [Example 16, 2-amino-N-cyclopropyl-4-(2,4-dichloro-6-{2-[5-methyl-3-(trifluoromethyl)-1H-pyrazol-1-yl]ethoxy}phenyl)-5,7-dihydro-6H-pyrrolo[3,4-d]pyrimidine-6-carboxamide] | 9960
CC(F)(F)CNC(=O)N1Cc2nc(N)nc(-c3c(Cl)cc(Cl)cc3OCCn3cc(C#N)cn3)c2C1 [Example 11, 2-amino-4-{2,4-dichloro-6-[2-(4-cyano-1H-pyrazol-1-yl)ethoxy]phenyl}-N-(2,2-difluoropropyl)-5,7-dihydro-6H-pyrrolo[3,4-d]pyrimidine-6-carboxamide] | 2550

Source: US8080556B2, “2-amino pyrimidine compounds as potent HSP-90 inhibitors” (Pfizer Inc., priority 2008, dated 2011)
